# According to patent US9394555B2, “Compositions comprising a polypeptide having cellulolytic enhancing activity and a dioxy compound and uses thereof” (priority 2010, dated 2016):
# B1: T. aurantiacus GH61A polypeptide: GH61A polypeptide having cellulolytic enhancing activity (SEQ ID NO: 14), recombinantly produced in Aspergillus oryzae JaL250 (protein, listed as Thermoascus aurantiacus)
# chain: MSFSKIIATAGVLASASLVAGHGFVQNIVIDGKYYGGYLVNQYPYMSNPPEVIAWSTTATDLGFVDGTGYQTPDIICHRGAKPGALTAPVSPGGTVELQWTPWPDSHHGPVINYLAPCNGDCSTVDKTQLEFFKIAESGLINDDNPPGIWASDNLIAANNSWTVTIPTTIAPGNYVLRHEIIALHSAQNQDGAQNYPQCINLQVTGGGSDNPAGTLGTALYHDTDPGILINIYQKLSSYIIPGPPLYTG
# Key:
# Type in all cases: biochemical
# [1] = target: Aspergillus fumigatus GH61B polypeptide (Aspergillus fumigatus, UniProt Q4WP32); assay: Variable pH PASC conversion assay (Examples 29, 30) with Aspergillus fumigatus GH61B polypeptide; settings: gallic acid 0.2% w/w + Aspergillus fumigatus GH61B polypeptide (10 mg/g) + beta-glucosidase (10 mg/g), 72 hours, 50° C.
# Aspergillus fumigatus GH61B polypeptide, sequence (Q4WP32 22-250): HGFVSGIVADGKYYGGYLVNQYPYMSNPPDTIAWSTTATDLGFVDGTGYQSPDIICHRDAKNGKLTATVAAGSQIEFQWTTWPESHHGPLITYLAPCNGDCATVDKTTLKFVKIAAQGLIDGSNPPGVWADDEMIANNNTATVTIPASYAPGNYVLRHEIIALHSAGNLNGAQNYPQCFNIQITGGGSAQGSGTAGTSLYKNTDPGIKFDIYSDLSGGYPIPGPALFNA
# [2] = system: Thielavia terrestris GH61E polypeptide; assay: Variable pH PASC conversion assay (Examples 29, 30) with Thielavia terrestris GH61E polypeptide; settings: gallic acid 0.2% w/w + Thielavia terrestris GH61E polypeptide (10 mg/g) + beta-glucosidase (10 mg/g), 72 hours, 50° C.
# [3] = target: Trichoderma reesei GH61B polypeptide (Trichoderma reesei, UniProt Q7Z9M7); assay: Variable pH PASC conversion assay (Examples 29, 30) with Trichoderma reesei GH61B polypeptide; settings: gallic acid 0.2% w/w + Trichoderma reesei GH61B polypeptide (10 mg/g) + beta-glucosidase (10 mg/g), 72 hours, 50° C.
# Trichoderma reesei GH61B polypeptide, sequence (Q7Z9M7 20-249): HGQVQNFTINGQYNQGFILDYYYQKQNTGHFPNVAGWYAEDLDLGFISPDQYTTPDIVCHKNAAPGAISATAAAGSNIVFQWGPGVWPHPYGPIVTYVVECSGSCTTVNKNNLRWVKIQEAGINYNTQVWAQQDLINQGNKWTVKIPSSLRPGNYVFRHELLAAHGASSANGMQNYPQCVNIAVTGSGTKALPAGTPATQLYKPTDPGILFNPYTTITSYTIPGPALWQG
# [4] = target: T. aurantiacus GH61A polypeptide (Thermoascus aurantiacus, UniProt G3XAP7, N13Y); assay: Phosphoric acid swollen cellulose (PASC) hydrolysis assay (Examples 18, 19); settings: T. aurantiacus GH61A polypeptide (20 mg/g) + A. oryzae CEL3A beta-glucosidase (20 mg/g), no gallic acid; 72 hours, 50° C.
# Protocol: A 1% phosphoric acid swollen cellulose (PASC) slurry was prepared from AVICEL® PH101 using the protocol described by Zhang et al., 2006, Biomacromolecules 7: 644-648.
# The 1.0% PASC slurry prepared as described in Example 17 was thoroughly resuspended by shaking, and quickly transferred to a 100 ml beaker and stirred rapidly with a magnetic stirrer. Five hundred μl aliquots of the 1.0% PASC slurry were pipetted into wells of a 2.0 ml 96-deepwell plate (Axygen, Union City, Calif., USA) using a 1000 μl micropipette with a wide aperture tip (end of tip cut off about 2 mm from the base). One hundred μl of 10 mM MnSO4-500 mM sodium acetate pH 5 were then added to each well. […]
# Primary analysis of the hydrolysis reactions was performed using an AGILENT® 1100 HPLC with CHEMSTATION® software equipped with an AMINEX™ HPX-87H column. […] Sugars were detected using a refractive index detector with quantification by integration compared to purified sugar standards.
# All HPLC data processing was performed using MICROSOFT EXCEL™ software. […] In this assay only glucose was measured since beta-glucosidase was at high levels in all samples but the controls. Percent conversion was calculated using Equation 1. Triplicate data points were averaged and standard deviation was calculated. […]
# Data were collected and analyzed, as described in Example 18, after 72 hours of incubation at 50° C.
molecule,measurement,setting,value
O=C(O)c1cc(O)c(O)c(O)c1 [gallic acid],conversion of phosphoric acid swollen cellulose,[1]; pH 4,21.7±3.0%
same,conversion of phosphoric acid swollen cellulose,[1]; pH 5,23.8±1.4%
same,conversion of phosphoric acid swollen cellulose,[1]; pH 6,17.3±0.3%
same,conversion of phosphoric acid swollen cellulose,[1]; pH 7.5,5.6±0.7%
same,conversion of phosphoric acid swollen cellulose,[2]; pH 4,36.3±3.2%
same,conversion of phosphoric acid swollen cellulose,[2]; pH 5,41.7±3.9%
same,conversion of phosphoric acid swollen cellulose,[2]; pH 6,33.7±0.2%
same,conversion of phosphoric acid swollen cellulose,[2]; pH 7.5,23.8±3.0%
same,conversion of phosphoric acid swollen cellulose,[3]; pH 4,13.6±0.2%
same,conversion of phosphoric acid swollen cellulose,[3]; pH 5,15.9±0.6%
same,conversion of phosphoric acid swollen cellulose,[3]; pH 6,12.7±0.4%
same,conversion of phosphoric acid swollen cellulose,[3]; pH 7.5,3.9±1.0%
B1,conversion of PASC,[4],2.6±0.1%
